Tests used:
Smn protein = Smn protein levels in tissues of Δ7 SMA mice of the survival study; format: in vivo; conditions: spinal cord
Experimental: Protocol. The tissue samples in Safe-Lock tubes are weighed and the volume of RIPA buffer containing the protease inhibitor cocktail is added based on the weight to volume ratios for each type of tissue: Brain (50 mg/mL), Muscle (50 mg/mL) and Spinal Cord (25 mg/mL).
Tissues are homogenized using the TissueLyzer by bead milling. 5 mm stainless steel beads are added to the sample and shaken vigorously for 5 minutes at 30 Hz in the TissueLyzer. The samples are then centrifuged for 20 minutes at 14,000×g in a microcentrifuge and the homogenates transferred to the PCR plate. […] Fluorescence for each well of the plate at 665 nm and 620 nm is measured on an EnVision multilabel plate reader (Perkin-Elmer). The total protein in the tissue homogenate is measured using the BCA assay according to the manufacturer's protocol.
The normalized fluorescence signal is calculated for each sample, Blank and vehicle control well by dividing the signal at 665 nm by the signal at 620 nm. Normalizing the signal accounts for possible fluorescence quenching due to the matrix effect of the tissue homogenate. […] The ΔF value for each tissue sample well is divided by the total protein quantity (determined using the BCA assay) for that tissue sample. […]
Protocol. […] The number of surviving mice in each group is recorded every day and plotted as a percent of total number of mice. […]

[1] = tested on: Smn protein in human motor neurons derived from SMA iPS cells; assay: Smn protein assay in human motor neurons; format: cell-based; conditions: 72 hours, increasing concentrations (FIG. 10)
Experimental: Smn immunofluorescent confocal microscopy is used to quantify the level of Smn protein in human motor neurons treated with test compounds.
Protocol. Human motor neurons derived from SMA iPS cells (Ebert et al., Nature, 2009, […]; and, Rubin et al., BMC Biology, 2011, 9:42) are treated with test compound at various concentrations for 72 hours. The level of Smn protein in the cell nucleus is quantified using Smn immunostaining and confocal fluorescence microscopy essentially as described in Makhortova et al., Nature Chemical Biology, 2011, 7:544. The level of Smn protein in compound-treated samples is normalized to that in vehicle-treated samples and plotted as a function of the compound concentration.

COc1ccc(-c2cc(=O)n3cc(N4CCNCC4)ccc3n2)cc1OC [Cpd 6, 2-(3,4-dimethoxyphenyl)-7-(piperazin-1-yl)-4H-pyrido[1,2-a]pyrimidin-4-one]
Smn protein expression (Smn protein; IP 10 mg/kg QD PND 3-30, then orally 30 mg/kg BID PND 31-156, brain, muscle (FIG. 16a)): increased Smn protein expression in brain, spinal cord, and muscle tissues
Smn protein in the nucleus [1]: progressively more Smn protein in the nucleus

Cc1cn2nc(-c3cc(=O)n4cc(N5CCN(C)CC5)ccc4n3)cc2c(C)n1 [Cpd 170, 2-(4,6-dimethylpyrazolo[1,5-a]pyrazin-2-yl)-7-(4-methylpiperazin-1-yl)-4H-pyrido[1,2-a]pyrimidin-4-one]
Smn protein expression (Smn protein; IP 3 mg/kg QD PND 3-23, orally 10 mg/kg BID PND 24-88, orally 20 mg/kg QD PND 89-185, brain, muscle (FIG. 16b)): increased Smn protein expression in brain, spinal cord, and muscle tissues
